Measured values as given in patent US6358885B1, “Substituted phenylheterocyclic herbicides” (Mississippi State University, priority 1992, dated 2002).

Assays:
velvetleaf [1] = test: Test B preemergence/postemergence greenhouse plant response rating 0 to 10; assay type: in vivo, Abutilon theophrasti; details: 0 to 10 scale
Outline: (§1)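 Postemergence treatment of plants two to eighteen cm tall ran alongside preemergence treatment of planted seed, each using compound in a non-phytotoxic solvent.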

sorghum = test: Test C preemergence/postemergence greenhouse plant response rating 0 to 100; assay type: in vivo, Sorghum bicolor; details: POSTEMERGENCE; for Plant response rating, Sorghum: 0 to 100 scale
Outline: (§2)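 Compounds in non-phytotoxic solvent went onto sandy loam before emergence (seeded one day earlier) or onto plants at the one-to-four leaf stage. Duck salad was treated via flood water (~2.5 cm, maintained) over silt loam.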

purple nutsedge = test: Test G preemergence/postemergence greenhouse plant response rating 0 to 100; assay type: in vivo, Cyperus rotundus; details: Rate 125 g/ha, 0 to 100 scale
Description: (§3) Seeds, rhizomes, or plant parts of alfalfa (Medicago ativa), annual bluegrass (Poa annua), bermudagrass (Cynodon dactylon), broadleaf signalgrass (Brachiaria plantaginea), common purslane (Portulaca oleracea), common ragweed (Ambrosia elatior), […] (Paspalum dilatatum), goosegrass (Eleusine indica), guineagrass (Panicum maximum), […] exaltata), johnsongrass (Sorghum halepense), large crabgrass (Digitaria sanguinalis), peanut (Arachis hypoagaea), pitted morningglory (Ipomoea lacunosa), purple nutsedge (Cyperus rotundus), sandbur (Cenchrus echinatus), smooth crabgrass (Digitaria ischaemum) and yellow nutsedge (Cyperus esculentus) were planted into greenhouse pots containing greenhouse planting medium. Each pot contained only one plant species. The test compound was dissolved in a non-phytotoxic solvent and applied preemergence and/or postemergence to the plants. Preemergence applications were made within one day of planting the seeds or plant parts. Postemergence applications were applied when the plants were in the two to four leaf stage (three to twenty cm). Test chemicals were dissolved in a non-phytotoxic solvent and applied preemergence and postemergence to the plants. Untreated control plants and treated plants were placed in the greenhouse and visually evaluated for injury at 13 to 21 days after herbicide application. […] A dash (-) response indicates no test result.

rice = test: Test C flood test plant response rating 0 to 100; assay type: in vivo, Oryza sativa; details: for Plant response rating Rice Japonica: flood test species listed under POSTEMERGENCE, 0 to 100 scale
Outline: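 Compounds in non-phytotoxic solvent applied preemergence to sandy loam one day after planting, postemergence at the 1–4 leaf stage, or to ~2.5 cm floodwater over silt loam.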

sugar beet = test: Test B preemergence/postemergence greenhouse plant response rating 0 to 10; assay type: in vivo, Beta vulgaris; details: 0 to 10 scale
Outline: as §1

crabgrass = test: Test C preemergence/postemergence greenhouse plant response rating 0 to 100; assay type: in vivo, Digitaria sanguinalis; details: POSTEMERGENCE; for Plant response rating, Crabgrass: 0 to 100 scale
Outline: as §2

pigweed = test: as above; assay type: in vivo, Amaranthusretroflexus; details: POSTEMERGENCE; for Plant response rating Pigweed: 0 to 100 scale
Outline: as §2

alfalfa = test: Test G preemergence/postemergence greenhouse plant response rating 0 to 100; assay type: in vivo, Medicago ativa; details: 0 to 100 scale
Description: as §3

giant foxtail = test: Test B preemergence/postemergence greenhouse plant response rating 0 to 10; assay type: in vivo, Setaria faberii; details: 0 to 10 scale
Outline: as §1

velvetleaf [2] = test: Test C preemergence/postemergence greenhouse plant response rating 0 to 100; assay type: in vivo, Abutilon theophrasti; details: POSTEMERGENCE; for Plant response rating, Velvetleaf: 0 to 100 scale
Outline: as §2

cotton = test: as above; assay type: in vivo, Gossypium hirsutum; details: POSTEMERGENCE; for Plant response rating, Cotton: 0 to 100 scale
Outline: as §2

barnyardgrass = test: Test B preemergence/postemergence greenhouse plant response rating 0 to 10; assay type: in vivo, Echinochloa crus-galli; details: for Plant response rating, Barnyardgrass: 0 to 10 scale
Outline: as §1

wild oat = test: Test C preemergence/postemergence greenhouse plant response rating 0 to 100; assay type: in vivo, Avena fatua; details: POSTEMERGENCE; for Plant response rating, Wild oat: 0 to 100 scale
Outline: as §2

lambsquarters = test: Test B preemergence/postemergence greenhouse plant response rating 0 to 10; assay type: in vivo, Chenopodium album; details: 0 to 10 scale
Outline: as §1

[3] = POSTEMERGENCE section, flood test, Rate 4 g/ha
[4] = Rate 16 g/ha, under POSTEMERGENCE head (flood test species)

CCCN1C(=O)COc2cc(F)c(-c3nn4c(c3Cl)CCCC4)cc21 [Compound 32]
Plant response rating, Velvetleaf (velvetleaf [1]; POSTEMERGENCE, Rate 10 g/ha): 10
Plant response rating, Velvetleaf (velvetleaf [1]; POSTEMERGENCE, Rate 50 g/ha): 10
Plant response rating, Velvetleaf (velvetleaf [1]; PREEMERGENCE, Rate 50 g/ha): 10
Plant response rating, Sorghum (sorghum; 62 g/ha): 60
Plant response rating (0 to 100), Sorghum (sorghum; Rate 1 g/ha): 30
Plant response rating (0 to 100), Sorghum (sorghum; Rate 4 g/ha): 40
Plant response rating (0 to 100), Sorghum (sorghum; Rate 16 g/ha): 50
Plant response rating, Purple Nutsedge (purple nutsedge; POSTEMERGENCE): 10
Plant response rating, Purple Nutsedge (purple nutsedge; PREEMERGENCE): 0
Plant response rating (0 to 100), Rice Japonica (rice; POSTEMERGENCE section, flood test, Rate 1 g/ha): 0
Plant response rating (0 to 100), Rice Japonica (rice; [3]): 20
Plant response rating (0 to 100), Rice Japonica (rice; [4]): 30
Plant response rating Rice Japonica (rice; 62 g/ha): 75
Plant response rating, Sugar beet (sugar beet; POSTEMERGENCE, Rate 10 g/ha): 10
Plant response rating, Sugar beet (sugar beet; POSTEMERGENCE, Rate 50 g/ha): 10
Plant response rating, Sugar beet (sugar beet; PREEMERGENCE, Rate 50 g/ha): 7
Plant response rating, Crabgrass (crabgrass; 62 g/ha): 40
Plant response rating (0 to 100), Crabgrass (crabgrass; Rate 1 g/ha): 10
Plant response rating (0 to 100), Crabgrass (crabgrass; Rate 4 g/ha): 20
Plant response rating (0 to 100), Crabgrass (crabgrass; Rate 16 g/ha): 30
Plant response rating Pigweed (pigweed; 62 g/ha): 100
Plant response rating (0 to 100), Pigweed (pigweed; Rate 1 g/ha): 95
Plant response rating (0 to 100), Pigweed (pigweed; Rate 4 g/ha): 100
Plant response rating (0 to 100), Pigweed (pigweed; Rate 16 g/ha): 100
Plant response rating, Alfalfa Var. (alfalfa; POSTEMERGENCE, Rate 125 g/ha): 0
Plant response rating, Alfalfa Var. (alfalfa; POSTEMERGENCE, Rate 250 g/ha): 0
Plant response rating, Alfalfa Var. (alfalfa; PREEMERGENCE, Rate 125 g/ha): 0
Plant response rating, Alfalfa Var. (alfalfa; PREEMERGENCE, Rate 250 g/ha): 0
Plant response rating, Giant foxtail (giant foxtail; POSTEMERGENCE, Rate 10 g/ha): 4
Plant response rating, Giant foxtail (giant foxtail; POSTEMERGENCE, Rate 50 g/ha): 5
Plant response rating, Giant foxtail (giant foxtail; PREEMERGENCE, Rate 10 g/ha): 2
Plant response rating, Giant foxtail (giant foxtail; PREEMERGENCE, Rate 50 g/ha): 4
Plant response rating, Velvetleaf (velvetleaf [2]; 62 g/ha): 100
Plant response rating (0 to 100), Velvetleaf (velvetleaf [2]; Rate 1 g/ha): 100
Plant response rating (0 to 100), Velvetleaf (velvetleaf [2]; Rate 16 g/ha): 100
Plant response rating, Cotton (cotton; 62 g/ha): 100
Plant response rating (0 to 100), Cotton (cotton; Rate 1 g/ha): 95
Plant response rating (0 to 100), Cotton (cotton; Rate 4 g/ha): 100
Plant response rating (0 to 100), Cotton (cotton; Rate 16 g/ha): 100
Plant response rating, Barnyardgrass (barnyardgrass; POSTEMERGENCE, Rate 10 g/ha): 3
Plant response rating (0 to 10 scale), Barnyardgrass (barnyardgrass; POSTEMERGENCE, Rate 50 g/ha): 5
Plant response rating, Barnyardgrass (barnyardgrass; PREEMERGENCE, Rate 10 g/ha): 0
Plant response rating, Barnyardgrass (barnyardgrass; PREEMERGENCE, Rate 50 g/ha): 1
Plant response rating, Wild oat (wild oat; 62 g/ha): 50
Plant response rating (0 to 100), Wild oat (wild oat; Rate 1 g/ha): 20
Plant response rating (0 to 100), Wild oat (wild oat; Rate 4 g/ha): 30
Plant response rating (0 to 100), Wild oat (wild oat; Rate 16 g/ha): 30
Plant response rating, Lambsquarter (lambsquarters; POSTEMERGENCE, Rate 10 g/ha): 10
Plant response rating, Lambsquarter (lambsquarters; POSTEMERGENCE, Rate 50 g/ha): 10
Plant response rating, Lambsquarter (lambsquarters; PREEMERGENCE, Rate 50 g/ha): 10

COC(=O)C(C)Oc1cc(-c2nn3c(c2Cl)CCCC3)c(F)cc1Cl (centres unmarked) [Compound 28]
Plant response rating, Velvetleaf (velvetleaf [1]; POSTEMERGENCE, Rate 50 g/ha): 10
Plant response rating, Velvetleaf (velvetleaf [1]; POSTEMERGENCE, Rate 200 g/ha): 10
Plant response rating, Velvetleaf (velvetleaf [1]; PREEMERGENCE, Rate 50 g/ha): 5
Plant response rating, Velvetleaf (velvetleaf [1]; Rate 200 g/ha, PREEMERGENCE): 10
Plant response rating, Sorghum (sorghum; 62 g/ha): 100
Plant response rating, Sorghum (sorghum; 250 g/ha): 100
Plant response rating (0 to 100), Sorghum (sorghum; Rate 4 g/ha): 20
Plant response rating (0 to 100), Sorghum (sorghum; Rate 16 g/ha): 50
Plant response rating, Purple Nutsedge (purple nutsedge; POSTEMERGENCE): 0
Plant response rating, Purple Nutsedge (purple nutsedge; PREEMERGENCE): 0
Plant response rating (0 to 100), Rice Japonica (rice; [3]): 0
Plant response rating (0 to 100), Rice Japonica (rice; [4]): 45
Plant response rating Rice Japonica (rice; 62 g/ha): 65
Plant response rating Rice Japonica (rice; 250 g/ha): 85
Plant response rating, Sugar beet (sugar beet; POSTEMERGENCE, Rate 50 g/ha): 10
Plant response rating, Sugar beet (sugar beet; POSTEMERGENCE, Rate 200 g/ha): 10
Plant response rating, Sugar beet (sugar beet; PREEMERGENCE, Rate 50 g/ha): 10
Plant response rating, Sugar beet (sugar beet; Rate 200 g/ha, PREEMERGENCE): 10
Plant response rating, Crabgrass (crabgrass; 62 g/ha): 20
Plant response rating, Crabgrass (crabgrass; 250 g/ha): 50
Plant response rating (0 to 100), Crabgrass (crabgrass; Rate 4 g/ha): 0
Plant response rating (0 to 100), Crabgrass (crabgrass; Rate 16 g/ha): 0
Plant response rating Pigweed (pigweed; 62 g/ha): 100
Plant response rating Pigweed (pigweed; 250 g/ha): 100
Plant response rating (0 to 100), Pigweed (pigweed; Rate 4 g/ha): 100
Plant response rating (0 to 100), Pigweed (pigweed; Rate 16 g/ha): 100
Plant response rating, Alfalfa Var. (alfalfa; POSTEMERGENCE, Rate 125 g/ha): 0
Plant response rating, Alfalfa Var. (alfalfa; POSTEMERGENCE, Rate 250 g/ha): 0
Plant response rating, Alfalfa Var. (alfalfa; PREEMERGENCE, Rate 125 g/ha): 0
Plant response rating, Alfalfa Var. (alfalfa; PREEMERGENCE, Rate 250 g/ha): 0
Plant response rating, Giant foxtail (giant foxtail; POSTEMERGENCE, Rate 50 g/ha): 5
Plant response rating, Giant foxtail (giant foxtail; POSTEMERGENCE, Rate 200 g/ha): 8
Plant response rating, Giant foxtail (giant foxtail; PREEMERGENCE, Rate 50 g/ha): 0
Plant response rating, Giant foxtail (giant foxtail; Rate 200 g/ha, PREEMERGENCE): 5
Plant response rating, Velvetleaf (velvetleaf [2]; 62 g/ha): 100
Plant response rating, Velvetleaf (velvetleaf [2]; 250 g/ha): 100
Plant response rating (0 to 100), Velvetleaf (velvetleaf [2]; Rate 4 g/ha): 100
Plant response rating (0 to 100), Velvetleaf (velvetleaf [2]; Rate 16 g/ha): 100
Plant response rating, Cotton (cotton; 62 g/ha): 100
Plant response rating, Cotton (cotton; 250 g/ha): 100
Plant response rating (0 to 100), Cotton (cotton; Rate 4 g/ha): 100
Plant response rating (0 to 100), Cotton (cotton; Rate 16 g/ha): 100
Plant response rating (0 to 10 scale), Barnyardgrass (barnyardgrass; POSTEMERGENCE, Rate 50 g/ha): 7
Plant response rating, Barnyardgrass (barnyardgrass; POSTEMERGENCE, Rate 200 g/ha): 10
Plant response rating, Barnyardgrass (barnyardgrass; PREEMERGENCE, Rate 50 g/ha): 0
Plant response rating, Barnyardgrass (barnyardgrass; Rate 200 g/ha, PREEMERGENCE): 1
Plant response rating, Wild oat (wild oat; 62 g/ha): 50
Plant response rating, Wild oat (wild oat; 250 g/ha): 70
Plant response rating (0 to 100), Wild oat (wild oat; Rate 4 g/ha): 20
Plant response rating (0 to 100), Wild oat (wild oat; Rate 16 g/ha): 30
Plant response rating, Lambsquarter (lambsquarters; POSTEMERGENCE, Rate 50 g/ha): 10
Plant response rating, Lambsquarter (lambsquarters; POSTEMERGENCE, Rate 200 g/ha): 10
Plant response rating, Lambsquarter (lambsquarters; PREEMERGENCE, Rate 50 g/ha): 10
Plant response rating, Lambsquarter (lambsquarters; Rate 200 g/ha, PREEMERGENCE): 10
